# In patent publication US20240252474A1, “METHODS AND COMPOSITIONS COMPRISING A CARDIO-TOLERATED HDAC INHIBITOR” (HUYABIO International, LLC, priority 2023, published 2024):
# Where “and” joins values, the source holds several entries; their conditions need not be identical. Identical values can stand only once. Like-named read-outs stand apart in the source and are kept apart here.
# Assays:
# [1] = tested on: advanced solid tumors, including melanoma, RCC (renal cell carcinoma), and NSCLC (non-small cell lung cancer); assay: Tumor response by RECIST v.1.1; assay type: in vivo, human
# Description: The decision to escalate the dose was based on the conventional 3+3 design and observed incidences of dose-limiting toxicities (DLTs). Each treatment cycle was defined as 28 days. To be evaluable for DLT, a subject must have developed DLT, or received the minimum 75% of the planned HBI-8000 dose within the 28-day DLT evaluation period in the absence of treatment delays due to toxicities. Subjects experiencing DLT within the first two weeks after having received 100% of assigned dose of HBI-8000 are also evaluable for DLT. Unacceptable toxicities were defined as grade 3 or higher non-hematologic and hematologic toxicities with clinical complications. Unacceptable toxicities observed over the first 28 days following HBI-8000 administration were considered as DLTs. The RP2D was identified as the highest dose at which the DLT incidence was less than 33.3%. HBI-8000 administration continued until disease progression or unacceptable toxicity was observed. The efficacy of the combination was further evaluated in an expanded cohort of selected patient populations at RP2D based on an objective response rate according to Response Evaluation Criteria in Solid Tumors (RECIST) version 1.1 criteria, progression-free survival, and duration of responses.
# Tumor assessments were performed every 8 weeks until treatment discontinuation, then every 12 (±1) weeks in subjects in whom disease progression has not yet been observed, and followed the guidelines specified by RECIST v.1.1 and immune-related Response Evaluation Criteria In Solid Tumors (iRECIST).
# [2] = tested on: electrocardiogram (ECG) QT interval; assay: 12-lead Holter ECG (QTcF, heart rate) and concentration-QT modeling; assay type: in vivo; conditions: for median ΔQTcF across time points: C1D1, up to 4 hours post dose
# Method: In conjunction with the pharmacokinetic analysis, Holter monitors were used to record 12-lead continuous digital ECGs (under controlled conditions to minimize digital noise) on a baseline day (within 1-7 days prior to C1D1) and on C1D1 (Phase 1b only). Triplicate 10-second ECGs were extracted from the Holter flashcard at matched time-points on the baseline day and on C1D1 at pre-dose (0.5 hr prior to breakfast), and up to 4 hours post-dose. The PR, QRS, RR, and QT intervals were analyzed by a central ECG laboratory. Mealtimes (breakfast) were standardized across both days. The measured QT data were corrected for heart rate using the Fridericia correction (QTcF). • QTcF was calculated using the formula: Fridericia: QTcFri=QT/(RR)^1/3 (Fridericia L S. Die systolendauer im elektrokardiogramm bei normalenmenschen und bei herzkranken. Acta Med Scand. 1920; 53:469-486).
# (§1) Non-compartmental PK analysis for HBI-8000 was conducted in Phase 1b using serial plasma concentration data collected up to 24 hours post-dose for the first (Cycle 1 Day 1; C1D1) dose and up to 7 hours post-dose for the ninth (C2D1) dose of HBI-8000. In conjunction with PK, Holter monitors were used to record 12-lead continuous digital ECGs (under controlled conditions to minimize digital noise) on a baseline day (within 1-7 days prior to C1D1) and on C1D1 (Phase 1b only). Triplicate 10-second ECGs were extracted from the Holter flashcard at matched time-points on the baseline day and on C1D1 up to 4 hours post-dose and the PR, QRS, RR, and QT intervals were analyzed by a Central ECG Laboratory. Meal-times (breakfast) were standardized across both days and occurred after or ≥1 hour before the scheduled extraction times for triplicate ECGs. The measured QT data were corrected for heart rate using Fridericia (QTcF).
# [3] = Non-compartmental PK analysis of HBI-8000 plasma concentrations; assay type: in vivo, human; conditions: for AUC0-7/D / AUC0-24/D / Cmax/D / CPre/D: dose-normalized; for AUC from 0 to 7 h post-dose: read-out: AUC0-7; for AUC(0-t): read-out: AUC0-24
# Description: Statistical analyses of safety, tolerability, and anti-tumor activity were primarily descriptive in nature. Toxicities were tabulated by type and grade. The safety population included all patients who received ≥1 dose of HBI-8000 and nivolumab. Continuous variables were summarized using descriptive statistics and categorical variables were summarized with number and percentage at each category. Pharmacokinetic parameters were derived using noncompartmental methods with Phoenix® WinNonlin® Version 6.4 (Certara, L. P., Princeton, NJ, USA).
# as §1
# [4] = HBI-8000 + nivolumab, 3 NSCLC patients
# [5] = HBI-8000 + nivolumab, 5 melanoma patients
# [6] = HBI-8000 + nivolumab, 7 RCC patients
# [7] = 20 mg, n = 2, individual values
# [8] = C1D1, 20 mg, n = 3, geometric mean
# [9] = C1D1, 30 mg, n = 7, geometric mean
# [10] = C1D1, 40 mg, n = 7, geometric mean
# [11] = C2D1, 20 mg, n = 2, individual values
# [12] = C2D1, 30 mg, n = 3, geometric mean
# [13] = C2D1, 40 mg, n = 4, geometric mean
# [14] = human, plasma, oral, 20 mg, C1D1, 20 mg, n = 3, geometric mean
# [15] = human, plasma, oral, 30 mg, C1D1, 30 mg, n = 7, geometric mean
structure (smiles),measurement,setting,value
"Nc1cc(F)ccc1NC(=O)c1ccc(CNC(=O)/C=C/c2cccnc2)cc1 [HBI-8000, N-(2-amino-4-fluorophenyl)-4-[[[(2E)-1-oxo-3-(3-pyridinyl)-2-propen-1-yl]amino]methyl]benzamide]","NSCLC, PR",[1]; [4],1 patients
same,"NSCLC, stable disease",[1]; [4],2 patients
same,"Melanoma, complete response (CR)",[1]; [5],1 patients
same,"Melanoma, partial responses (PR)",[1]; [5],4 patients
same,Melanoma patients who responded,"[1]; HBI-8000 + nivolumab, 5 melanoma patients, RECIST v.1.1",5 patients
same,"RCC, PR",[1]; [6],2 patients
same,"RCC, progressive disease",[1]; [6],4 patients
same,"RCC, stable disease",[1]; [6],1 patients
same,"earliest objective response, time of treatment","[1]; HBI-8000 + nivolumab, first scheduled tumor assessment, end of Cycle 2",8 weeks
same,longest time to response after treatment initiation,"[1]; one patient, nivolumab and HBI-8000 ceased after 16 months",32 months
same,median ΔQTcF across time points,[2]; 30 mg dose,0 to −1.5 ms
same,highest median decrease in QTcF,"[2]; 40 mg dose, 4 hours post dose",-11.5 ms
same,median ΔQTcF across time points,[2]; 40 mg dose,−3.0 to −11.5 ms
same,mean upper 90% confidence limits of model-predicted ΔQTcF,"[2]; 20, 30 and 40 mg doses, threshold 10 ms",−1.1 to −2.8 ms
same,QTcF values,"[2]; all patients, 20-40 mg",≤ 450 ms
same,ΔQTcF values,"[2]; all patients, 20-40 mg",≤ 30 ms
same,Effect on QTcF (conclusion),[2]; at the doses and regimen administered,did not prolong QTcF
same,change from baseline ventricular heart rate,"[2]; single dose 20, 30 or 40 mg on C1D1, 0 to 4 hour",remained essentially stable
same,"median plasma concentration at 4 hours, lower than Cmax by",[3]; 20 mg dose,17%
same,AUC0-7 Ratio (C2D1/C1D1),[3]; [7],0.69 and 1.99
same,Cmax Ratio (C2D1/C1D1),[3]; [7],1.06 and 1.80
same,"median plasma concentration at 4 hours, lower than Cmax by",[3]; 30 mg dose,19%
same,AUC0-7 Ratio (C2D1/C1D1),"[3]; 30 mg, n = 3, geometric mean",1.37
same,Cmax Ratio (C2D1/C1D1),"[3]; 30 mg, n = 3, geometric mean",1.08
same,AUC0-7 Ratio (C2D1/C1D1),"[3]; 40 mg, n = 3, geometric mean",1.36
same,Cmax Ratio (C2D1/C1D1),"[3]; 40 mg, n = 4, geometric mean",1.18
same,"median plasma concentration at 4 hours, lower than Cmax by",[3]; 40-mg dose,15%
same,"Accumulation, first versus ninth dose","[3]; BIW dosing, C1D1 vs C2D1",No significant accumulation
same,Cmax,"[3]; C1D1, 20 mg oral, n = 3, geometric mean",104.9 ng/mL
same,AUC0-7/D,[3]; [8],19.2 ng·h/mL/mg
same,AUC0-24/D,[3]; [8],79.5 ng·h/mL/mg
same,Cmax/D,[3]; [8],5.24 ng/mL/mg
same,Cmax,"[3]; C1D1, 30 mg oral, n = 7, geometric mean",117.6 ng/mL
same,AUC0-7/D,[3]; [9],11.4 ng·h/mL/mg
same,AUC0-24/D,[3]; [9],57.8 ng·h/mL/mg
same,Cmax/D,[3]; [9],3.92 ng/mL/mg
same,Cmax,"[3]; C1D1, 40 mg oral, n = 7, geometric mean",259.3 ng/mL
same,AUC0-7/D,"[3]; C1D1, 40 mg, n = 6, geometric mean",24.3 ng·h/mL/mg
same,AUC0-24/D,[3]; [10],92.2 ng·h/mL/mg
same,Cmax/D,[3]; [10],6.49 ng/mL/mg
same,Cmax,"[3]; C2D1, 20 mg BIW, n = 2, individual values",83.1 ng/mL and 182 ng/mL
same,AUC0-7,[3]; [11],250 ng·h/mL and 728 ng·h/mL
same,CPre (pre-dose trough concentration),[3]; [11],4.76 ng/mL and 4.79 ng/mL
same,Tmax,[3]; [11],3.0 h
same,AUC0-7/D,[3]; [11],12.5 ng·h/mL/mg and 36.4 ng·h/mL/mg
same,CPre/D,[3]; [11],0.238 ng/mL/mg and 0.240 ng/mL/mg
same,Cmax/D,[3]; [11],4.16 ng/mL/mg and 9.10 ng/mL/mg
same,CPre (pre-dose trough concentration),[3]; [12],16.1 ng/mL
same,AUC0-7/D,[3]; [12],13.1 ng·h/mL/mg
same,CPre/D,[3]; [12],0.536 ng/mL/mg
same,Cmax/D,[3]; [12],3.76 ng/mL/mg
same,CPre (pre-dose trough concentration),[3]; [13],14.2 ng/mL
same,AUC0-7/D,[3]; [13],23.2 ng·h/mL/mg
same,CPre/D,[3]; [13],0.356 ng/mL/mg
same,Cmax/D,[3]; [13],5.73 ng/mL/mg
same,AUC from 0 to 7 h post-dose,[3]; [14],384 ng·h/mL
same,AUC(0-t),[3]; [14],1590 ng·h/mL
same,Tmax,"[3]; human, plasma, oral, 20 mg, C1D1, 20 mg, n = 3, median, read-out: tmax",6.6 h
same,AUC from 0 to 7 h post-dose,[3]; [15],342 ng·h/mL
same,AUC(0-t),[3]; [15],1730 ng·h/mL
same,Tmax,"[3]; human, plasma, oral, 30 mg, C1D1, 30 mg, n = 7, median, read-out: tmax",6.5 h
same,Cmax,"[3]; human, plasma, oral, 30 mg, C2D1, 30 mg BIW, n = 3, geometric mean, read-out: Cmax",113 ng/mL
same,AUC from 0 to 7 h post-dose,"[3]; human, plasma, oral, 30 mg, C2D1, 30 mg, n = 3, geometric mean",392 ng·h/mL
same,Tmax,"[3]; human, plasma, oral, 30 mg, C2D1, 30 mg, n = 3, median, read-out: tmax",6.7 h
same,AUC from 0 to 7 h post-dose,"[3]; human, plasma, oral, 40 mg, C1D1, 40 mg, n = 6, geometric mean",973 ng·h/mL
same,AUC(0-t),"[3]; human, plasma, oral, 40 mg, C1D1, 40 mg, n = 7, geometric mean",3690 ng·h/mL
same,Tmax,"[3]; human, plasma, oral, 40 mg, C1D1, 40 mg, n = 7, median, read-out: tmax",4.8 h
same,Cmax,"[3]; human, plasma, oral, 40 mg, C2D1, 40 mg BIW, n = 4, geometric mean, read-out: Cmax",229 ng/mL
same,AUC from 0 to 7 h post-dose,"[3]; human, plasma, oral, 40 mg, C2D1, 40 mg, n = 4, geometric mean",929 ng·h/mL
same,Tmax,"[3]; human, plasma, oral, 40 mg, C2D1, 40 mg, n = 4, median, read-out: tmax",6.8 h
same,Tmax,"[3]; human, plasma, oral, 40 mg, range across 20, 30 and 40 mg BIW dose cohorts, post dose, read-out: median time to peak plasma concentration (tmax)",5 to 7 h
same,Cmax,"[3]; human, plasma, po, 20 mg, C1D1, 20 mg oral, n = 3, geometric mean, read-out: Cmax",105 ng/mL
same,Cmax,"[3]; human, plasma, po, 30 mg, C1D1, 30 mg oral, n = 7, geometric mean, read-out: Cmax",118 ng/mL
same,Cmax,"[3]; human, plasma, po, 40 mg, C1D1, 40 mg oral, n = 7, geometric mean, read-out: Cmax",259 ng/mL
